Assay [1] concerns C. difficile toxins A and B. Nature of the assay: Evaluation of chromogenic substrates for the Cdifftox Activity assay. Type of assay: biochemical, Clostridium difficile. Here is the method: A Cdifftox Activity assay was used to identify fractions that contained PNPG cleavage activity. The assay consists of the Cdifftox substrate reagent composed of 10 mM PNPG, 50 mM Tris-HCl (pH 7.4), 50 mM NaCl, and 100 μM MnCl2. The assay was performed in Costar sterile polystyrene 96-well plates (Corning Inc., NY) by adding to each well 200 μl of sample or culture supernatant fluid containing the toxins and 100 μl of the reagent. The plate was incubated at 37° C. for 1-4 hrs and each reaction was stopped by the addition to the well of 40 μl of 3 M Na2CO3. Cleavage of the substrate was monitored by measuring the absorbance between 400-500 nm, with a SPECTRA max at 410 nm.
Plus 384 spectrophotometer (Molecular Devices, Sunnyvale, Calif.). To identify the best substrate for the assay, a number of substrates were evaluated including: p-nitrophenyl-α-D-glucopyranoside, 4-aminophenyl-α-D-glucopyranoside, 4-amino-phenyl-β-D-glucopyranoside, 5-benzyloxy-3-indoxyl-β-D-glucopyranoside, 5-bromo-6-chloro-3-indoxyl-β-D-glucopyranoside, 6-bromo-2-naphthyl-α-D-glucopyranoside, 6-chloro-3-indoxyl-α-D-glucopyranoside, 6-chloro-3-indoxyl-N-acetyl-beta-D-glucos-aminide, 5-bromo-3-indoxyl-β-D-galactopyranoside, and 5-bromo-4-chloro-3-indoxyl-β-D-galactopyranoside. […]

Assay [2] concerns the target T1, C. difficile toxin A (Clostridioides difficile, UniProt P16154). Conditions: 0-300 mM.
In assay [3] the target is T2, C. difficile toxin B (Clostridioides difficile, UniProt P18177). Particulars: 0-300 mM.
T2 sequence (P18177 whole entry): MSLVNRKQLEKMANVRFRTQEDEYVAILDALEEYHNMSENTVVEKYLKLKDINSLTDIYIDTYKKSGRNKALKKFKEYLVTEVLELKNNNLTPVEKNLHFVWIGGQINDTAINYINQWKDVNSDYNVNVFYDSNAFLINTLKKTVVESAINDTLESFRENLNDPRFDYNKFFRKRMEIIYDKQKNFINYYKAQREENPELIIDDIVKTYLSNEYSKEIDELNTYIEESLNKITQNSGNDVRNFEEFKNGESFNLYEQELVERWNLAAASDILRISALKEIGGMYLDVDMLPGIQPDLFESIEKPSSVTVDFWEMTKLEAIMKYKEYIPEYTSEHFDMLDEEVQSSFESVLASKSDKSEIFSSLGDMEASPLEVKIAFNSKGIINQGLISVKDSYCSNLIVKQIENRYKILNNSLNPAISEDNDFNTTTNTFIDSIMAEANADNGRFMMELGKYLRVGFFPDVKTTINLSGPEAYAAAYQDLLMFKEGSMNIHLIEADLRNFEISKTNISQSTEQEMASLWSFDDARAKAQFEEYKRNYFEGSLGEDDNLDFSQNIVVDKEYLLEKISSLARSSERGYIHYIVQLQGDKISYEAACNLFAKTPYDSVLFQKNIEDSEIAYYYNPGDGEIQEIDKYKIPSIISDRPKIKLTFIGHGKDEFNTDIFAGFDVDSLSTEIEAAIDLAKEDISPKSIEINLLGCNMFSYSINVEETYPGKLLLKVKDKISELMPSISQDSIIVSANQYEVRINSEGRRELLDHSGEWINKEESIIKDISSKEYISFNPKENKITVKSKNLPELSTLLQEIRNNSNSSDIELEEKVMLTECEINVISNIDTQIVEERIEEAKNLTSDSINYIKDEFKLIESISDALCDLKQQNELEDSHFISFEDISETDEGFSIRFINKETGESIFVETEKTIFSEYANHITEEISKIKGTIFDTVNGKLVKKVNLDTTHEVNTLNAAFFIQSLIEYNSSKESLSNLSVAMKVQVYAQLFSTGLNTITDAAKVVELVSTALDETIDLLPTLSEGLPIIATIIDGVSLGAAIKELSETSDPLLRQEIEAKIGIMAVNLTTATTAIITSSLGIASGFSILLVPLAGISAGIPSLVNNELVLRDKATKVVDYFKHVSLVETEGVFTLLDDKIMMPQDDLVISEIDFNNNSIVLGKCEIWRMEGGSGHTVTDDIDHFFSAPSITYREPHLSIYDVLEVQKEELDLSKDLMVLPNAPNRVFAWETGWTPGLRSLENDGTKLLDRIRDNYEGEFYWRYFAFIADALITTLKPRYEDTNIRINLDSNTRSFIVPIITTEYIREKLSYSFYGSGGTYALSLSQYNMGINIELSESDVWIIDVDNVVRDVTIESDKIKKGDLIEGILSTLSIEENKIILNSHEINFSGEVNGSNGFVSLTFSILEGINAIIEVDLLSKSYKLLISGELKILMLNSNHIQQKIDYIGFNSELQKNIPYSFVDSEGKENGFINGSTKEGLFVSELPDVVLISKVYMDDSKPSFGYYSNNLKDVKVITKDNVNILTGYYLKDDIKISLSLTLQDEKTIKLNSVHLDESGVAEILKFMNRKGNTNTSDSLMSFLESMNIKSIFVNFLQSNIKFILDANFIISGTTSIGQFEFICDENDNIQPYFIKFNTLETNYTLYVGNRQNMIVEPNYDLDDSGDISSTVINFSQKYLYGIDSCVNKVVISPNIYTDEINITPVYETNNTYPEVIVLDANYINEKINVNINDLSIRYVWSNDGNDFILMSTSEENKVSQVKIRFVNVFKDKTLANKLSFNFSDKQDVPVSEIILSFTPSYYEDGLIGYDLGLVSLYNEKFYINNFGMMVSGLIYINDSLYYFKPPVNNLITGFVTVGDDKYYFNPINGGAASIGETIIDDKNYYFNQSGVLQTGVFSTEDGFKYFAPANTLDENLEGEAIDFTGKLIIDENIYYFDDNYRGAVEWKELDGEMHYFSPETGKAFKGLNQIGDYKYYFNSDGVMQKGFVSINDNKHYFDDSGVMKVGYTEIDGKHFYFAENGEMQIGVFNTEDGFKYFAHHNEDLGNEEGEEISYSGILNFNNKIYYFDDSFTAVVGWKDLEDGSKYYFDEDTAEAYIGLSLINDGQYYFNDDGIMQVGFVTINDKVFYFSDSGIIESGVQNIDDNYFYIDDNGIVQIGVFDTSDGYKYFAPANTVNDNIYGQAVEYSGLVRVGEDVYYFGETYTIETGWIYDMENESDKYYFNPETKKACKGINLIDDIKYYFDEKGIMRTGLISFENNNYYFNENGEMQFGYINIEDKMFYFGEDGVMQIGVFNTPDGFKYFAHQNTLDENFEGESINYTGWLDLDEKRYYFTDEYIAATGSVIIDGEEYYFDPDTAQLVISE
The subject of assay [4] is C. difficile spores. Conditions: 0.1% or approximately 1.9 mM.
Assay [5] concerns C. difficile toxins A and B. Conditions: 0.1% or approximately 1.9 mM.
In assay [6] the test system is mammalian β-glucosidases. Particulars: cited from earlier work.
Assay [7] deals with T1, C. difficile toxin A. Nature of the assay: biochemical. Conditions: read-out: reduction of toxin A activity (percent inhibition).
Assay [8] has as its target T2, C. difficile toxin B. Nature of the assay: biochemical. Conditions: read-out: reduction of toxin B activity (percent inhibition).

Read-outs that look alike come from different tables or passages of the source.

The inhibition is how much of the control response was suppressed.

T1 sequence (P16154 whole entry, looked up): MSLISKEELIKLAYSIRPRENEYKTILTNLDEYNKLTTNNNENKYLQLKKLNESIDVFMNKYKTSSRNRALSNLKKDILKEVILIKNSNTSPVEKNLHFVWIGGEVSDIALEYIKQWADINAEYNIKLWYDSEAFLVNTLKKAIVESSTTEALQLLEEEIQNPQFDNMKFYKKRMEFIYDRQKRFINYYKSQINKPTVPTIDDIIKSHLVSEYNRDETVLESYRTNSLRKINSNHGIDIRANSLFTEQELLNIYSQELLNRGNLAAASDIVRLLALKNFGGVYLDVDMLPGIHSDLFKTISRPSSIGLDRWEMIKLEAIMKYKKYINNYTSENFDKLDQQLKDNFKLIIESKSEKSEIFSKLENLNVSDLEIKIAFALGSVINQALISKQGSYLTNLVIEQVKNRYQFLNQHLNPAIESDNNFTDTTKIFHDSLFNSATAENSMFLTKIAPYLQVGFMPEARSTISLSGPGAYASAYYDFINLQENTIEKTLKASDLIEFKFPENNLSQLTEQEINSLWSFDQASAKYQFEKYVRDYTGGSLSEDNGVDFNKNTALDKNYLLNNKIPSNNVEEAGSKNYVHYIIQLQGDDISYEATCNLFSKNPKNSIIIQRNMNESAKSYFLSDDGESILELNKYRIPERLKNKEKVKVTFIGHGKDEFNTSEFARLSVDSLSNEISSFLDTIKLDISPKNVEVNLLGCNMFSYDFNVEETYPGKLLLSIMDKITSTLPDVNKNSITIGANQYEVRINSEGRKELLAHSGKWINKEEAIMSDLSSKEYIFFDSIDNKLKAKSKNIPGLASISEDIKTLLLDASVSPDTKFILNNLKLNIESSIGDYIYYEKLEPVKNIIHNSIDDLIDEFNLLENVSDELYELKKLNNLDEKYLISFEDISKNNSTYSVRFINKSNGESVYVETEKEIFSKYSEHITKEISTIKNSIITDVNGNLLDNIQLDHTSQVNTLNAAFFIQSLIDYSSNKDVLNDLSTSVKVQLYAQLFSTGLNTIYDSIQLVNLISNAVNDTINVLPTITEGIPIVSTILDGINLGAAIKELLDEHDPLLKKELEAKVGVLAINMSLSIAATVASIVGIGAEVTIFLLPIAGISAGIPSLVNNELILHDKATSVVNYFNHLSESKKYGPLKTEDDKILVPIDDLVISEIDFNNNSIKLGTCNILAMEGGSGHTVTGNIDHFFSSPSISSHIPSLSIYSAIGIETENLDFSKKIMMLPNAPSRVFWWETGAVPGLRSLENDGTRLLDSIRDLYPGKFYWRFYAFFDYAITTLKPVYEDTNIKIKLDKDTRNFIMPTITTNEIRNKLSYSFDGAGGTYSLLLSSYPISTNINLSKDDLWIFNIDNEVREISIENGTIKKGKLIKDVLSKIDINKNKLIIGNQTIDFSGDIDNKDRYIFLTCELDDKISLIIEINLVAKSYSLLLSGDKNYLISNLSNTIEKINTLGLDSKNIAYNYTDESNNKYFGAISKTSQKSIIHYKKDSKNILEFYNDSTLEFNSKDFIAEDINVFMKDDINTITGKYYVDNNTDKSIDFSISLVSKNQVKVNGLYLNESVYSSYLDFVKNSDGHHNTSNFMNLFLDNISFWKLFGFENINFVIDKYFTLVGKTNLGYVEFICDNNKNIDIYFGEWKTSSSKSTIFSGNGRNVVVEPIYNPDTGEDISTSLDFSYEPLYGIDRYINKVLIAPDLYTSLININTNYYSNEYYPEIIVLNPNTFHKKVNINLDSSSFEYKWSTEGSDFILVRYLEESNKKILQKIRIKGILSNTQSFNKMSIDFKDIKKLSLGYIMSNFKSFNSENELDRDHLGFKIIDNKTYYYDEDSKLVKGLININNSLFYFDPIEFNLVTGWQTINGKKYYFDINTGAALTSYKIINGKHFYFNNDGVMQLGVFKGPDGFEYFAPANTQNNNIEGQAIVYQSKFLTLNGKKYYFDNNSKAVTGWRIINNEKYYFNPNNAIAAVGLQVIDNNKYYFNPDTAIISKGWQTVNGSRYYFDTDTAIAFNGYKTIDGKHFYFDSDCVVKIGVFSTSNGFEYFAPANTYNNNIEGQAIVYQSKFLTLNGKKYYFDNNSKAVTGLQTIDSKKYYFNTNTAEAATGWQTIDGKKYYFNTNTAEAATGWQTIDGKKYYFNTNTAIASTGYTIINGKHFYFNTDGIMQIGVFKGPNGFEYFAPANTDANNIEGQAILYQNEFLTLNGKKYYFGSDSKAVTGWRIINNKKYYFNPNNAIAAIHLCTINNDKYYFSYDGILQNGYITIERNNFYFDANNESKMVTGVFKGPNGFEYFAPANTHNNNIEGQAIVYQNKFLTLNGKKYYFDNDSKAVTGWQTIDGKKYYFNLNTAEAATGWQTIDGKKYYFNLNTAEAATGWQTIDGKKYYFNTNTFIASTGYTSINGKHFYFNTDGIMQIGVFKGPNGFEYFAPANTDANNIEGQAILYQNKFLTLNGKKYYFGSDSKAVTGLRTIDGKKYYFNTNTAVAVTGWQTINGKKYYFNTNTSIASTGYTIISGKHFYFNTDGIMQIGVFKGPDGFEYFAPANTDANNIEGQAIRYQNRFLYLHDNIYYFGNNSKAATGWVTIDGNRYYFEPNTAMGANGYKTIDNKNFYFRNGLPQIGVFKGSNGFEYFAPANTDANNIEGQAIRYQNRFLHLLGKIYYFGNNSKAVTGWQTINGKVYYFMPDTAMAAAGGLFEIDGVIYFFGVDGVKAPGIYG

Turning to `O=[N+]([O-])c1ccc(O[C@@H]2O[C@H](CO)[C@@H](O)[C@H](O)[C@H]2O)cc1` [PNPG, p-nitrophenyl-β-D-glucopyranoside], the “cleavage by the toxins compared with other substrates evaluated” value in assay [1] is “most efficient and sensitive, and had the lowest background”.
For `C[C@H](CCC(=O)NCCS(=O)(=O)O)[C@H]1CC[C@H]2[C@@H]3[C@H](O)C[C@@H]4C[C@H](O)CC[C@]4(C)[C@H]3C[C@H](O)[C@]12C` [sodium taurocholate], in assay [2], the “inhibition of toxin A PNPG cleavage activity, dose response” value was “dose-dependent”. Besides, in assay [3], the “inhibition of toxin B PNPG cleavage activity, dose response” value is “dose-dependent”. The “effect on C. difficile spores in plate assay medium” value in assay [4] is given as “serves as a germinant”. For the same molecule, the “inhibition of cleavage activity of the toxins at low concentration” value in assay [5] is listed as “does not inhibit”. Besides, the “inhibition of β-glucosidases, mode” value is “non-competitively inhibit” in assay [6] (listed as Sodium taurocholate) and “non-competitive” in assay [6] (listed as taurocholate). Also, the inhibition at 300000 µM in assay [7] was 71%; in assay [8], 86%.
Take phosphatidylserine: the “inhibition of β-glucosidases, mode” value in assay [6] is given as “non-competitive”.

The record behind these values is patent US20180016616A1, “METHODS AND COMPOSITIONS FOR THE DETECTION OF FUNCTIONAL CLOSTRIDIUM DIFFICILE TOXINS” (BOARD OF REGENTS OF THE UNIVERSITY OF TEXAS SYSTEM, priority 2011, published 2018).
